Patent publication US20120058198A1, “METHODS FOR TREATING AND PREVENTING PNEUMONIA AND VENTILATOR-ASSOCIATED TRACHEOBRONCHITIS” (PULMATRIX, INC., priority 2009, published 2012)

Columns and labels:
[1] = tested on: Serotype 3 Streptococcus pneumoniae; assay: Mouse S. pneumoniae infection model, nebulized calcium:sodium formulations 2 hours before infection; type: in vivo; conditions: ampicillin synergy study; nebulized 2 h before infection; ~0.72 mg Ca/kg, ampicillin ~3 mg/kg
Protocol: Unless otherwise stated, exposure times were 3 minutes in duration. […] CFU were enumerated the following day.

bacteria = assay: Pass through assay, calcium chloride dose dependence (bacterium not named); type: cell-based; conditions: amount delivered to mimetic, between the […] and […] solutions; from other analyses
Protocol: In these studies, the number of exposures via nebulization was different, making direct comparisons difficult. […] In this study, a single dose of each formulation was delivered to the apical surface of sodium alginate mimetic and bacteria were added immediately after exposure. […] In contrast, the 0.12M and 0.38M treatments had no effect.
All of the formulations tested above were formulated in isotonic saline. Thus, the inhibitory effects seen could be caused by the dual action of sodium and calcium ions in concert or alternatively, the effect could be driven entirely by calcium. To differentiate between these hypotheses, we tested additional calcium formulations based in water rather than saline.

SMILES | reduction in lung bacterial titers relative to saline control [1] | critical concentration of calcium needed for the inhibition of bacteria (bacteria)
CC1(C)S[C@@H]2[C@H](NC(=O)[C@H](N)c3ccccc3)C(=O)N2[C@H]1C(=O)O [ampicillin] | 33 fold | –
[Ca+2].[Cl-].[Cl-] [calcium chloride] | – | 3-4 μg of calcium per cm^2
